“And” between values parts separate entries of the source, which are not always exact repeats. Identical values can stand only once. Like-named read-outs stand apart in the source and are kept apart here.
Experiments:
[1] = tested on: LACV; assay: microbe, parasite or virus in culture; assay type: cell-based, La Crosse virus
[2] = tested on: LACV; assay: microbe, parasite or virus in culture; assay type: cell-based, La Crosse virus; remark: listed apart in the source
[3] = Cell viability assay (MTT), uninfected SH-SY5Y cells; assay type: cell-based; conditions: human, MTT at 3 dpi, mean ± SD
Procedure: (§1) CPE-based antiviral activity and cell viability assays were conducted as previously reported ([23]), with several modifications. Vero and SH-SY5Y cells were treated with serially diluted compounds in minimum essential medium (MEM) containing 2% FBS. In the antiviral evaluation, the cells were infected with LACV (40–80 plaque-forming unit [PFU]/well for Vero and 300–4,000 PFU/well for SH-SY5Y cells). In the cell viability assays, the cells treated with the compounds were cultured in the absence of viral infection. After 2 or 3 days of culture, the cells were stained with 3-(4,5-dimethylthiazol-2-yl)-2,5-diphenyltetrazolium bromide (MTT). The antiviral activity (50% effective concentration values, EC50) was calculated using Prism version 9.5.1 (GraphPad, La Jolla, CA, USA) using the four-parameter logistic method. Non-infected and non-treated cells were defined as the 100% inhibition control, while LACV-infected and non-treated cells were defined as the 0% inhibition control. Cell viability (50% cytotoxicity concentration values, CC50) was calculated using the MTT assay. Non-treated control cells were defined as the 100% cell viability control, while wells containing culture medium without cells were defined as the 0% cell viability control. Selective Index (SI50) was calculated as the ratio of CC50 to EC50 (CC50/EC50).

[4] = Cell viability assay (MTT), uninfected Vero cells; assay type: cell-based; conditions: African green monkey, mean ± SD
Procedure: as §1

[5] = tested on: CEN of orthobunyaviruses; parameters: method as in PMID 32766680, PMID 38656310; conditions: cited from earlier work
[6] = tested on: LACV passage control WT; assay: microbe, parasite or virus in culture; assay type: cell-based; conditions: La Crosse virus, Vero
[7] = assay type: in vivo; conditions: uninfected mice; s.c. once daily for 7 days
[8] = tested on: LACV; assay type: cell-based, La Crosse virus
[9] = tested on: LACV passage control WT; assay: microbe, parasite or virus in culture; assay type: cell-based; conditions: La Crosse virus, SH-SY5Y
[10] = tested on: Bunyaviruses, including LACV; parameters: method as in PMID 36037386; conditions: cited from earlier work

Structure (SMILES)	EC50 ([1]; La Crosse virus, Vero) [µM]	EC50 ([2]; La Crosse virus, SH-SY5Y) [µM]	CC50 at 3 days [3] [µM]	CC50 [4] [µM]	Binding to CEN and inhibition of enzymatic activity [5]	EC50 [6] [µM]	Body weight changes versus vehicle-treated mice [7]	EC50 lower than for T-705 and RBV [1]	Inhibition of LACV-induced cell death compared with other CEN inhibitors [1]	Antiviral activity compared with other CEN inhibitors [2]	EC50 [2]	Viral RNA expression, entry-stage treatment [8]	EC50 [9] [µM]	Susceptibility of bunyaviruses among the four CEN inhibitors [10]	EC50 [1] [µM]
NC(=O)c1ncn([C@@H]2O[C@H](CO)[C@@H](O)[C@H]2O)n1 [RBV, Ribavirin, reference compound]	> 100	> 100	121 ± 7.61	82.1 ± 28.4	–	–	–	–	–	–	–	–	–	–	–
O=C1c2c(O)c(=O)ccn2N([C@@H]2c3ccccc3SCc3c2ccc(F)c3F)[C@@H]2COCCN12 [BXA, baloxavir acid]	–	–	–	–	binds to the CEN of orthobunyaviruses and inhibits its enzymatic activity	–	–	–	–	–	–	–	–	–	–
CC(C)N1CN(C2c3ccccc3CCc3ccccc32)n2cc(C(=O)O)c(=O)c(O)c2C1=O [CAPCA-1, carbamoyl pyridone carboxylic acid (CAPCA)-1]	–	< 1	> 50	> 50	–	0.79 ± 0.39	No significant differences in body weight changes	more than 50 fold	inhibited LACV-induced cell death at lower concentrations than the other CEN inhibitors	antiviral activity comparable to that of CAPCA-4 and demonstrated higher activity than CAPCA-2, -3, and -5	0.69 µM and 0.95 µM	no inhibitory effect	0.65 ± 0.05	most susceptible to CAPCA-1	–
NC(=O)c1nc(F)c[nH]c1=O [T-705, favipiravir, reference compound]	33.9 ± 5.29	> 100	> 200	117 ± 24.7	–	43.8 ± 11.5	–	–	–	–	–	no inhibitory effect	–	–	37.8 ± 3.96
